# Data published in patent US20220096614A1, “PEPTIDE-INDUCED NK CELL ACTIVATION” (University of Southampton, priority 2019, published 2022).
# Tested on: KIR2DS2
# Test: KIR2DS2 tetramer staining of peptide-loaded 721.174 cells (flow cytometry)
# Assay type: binding
# Settings: 721.174 cells loaded with peptide; KIR2DS2 tetramer conjugated to phycoerythrin; no peptide 10503
# Description: 721.174 cells were loaded with peptide and then stained using a tetramer of KIR2DS2 conjugated to phycoerythrin. Shown is a flow cytometry histogram plot of the staining of the 721.174 cells in the presence or absence of peptide. Mean fluorescence intensitites are indicated: 14811 for NAPLVHATL versus 10503 for no peptide.
# Sequence of KIR2DS2 (P43631 22-245 limits assumed): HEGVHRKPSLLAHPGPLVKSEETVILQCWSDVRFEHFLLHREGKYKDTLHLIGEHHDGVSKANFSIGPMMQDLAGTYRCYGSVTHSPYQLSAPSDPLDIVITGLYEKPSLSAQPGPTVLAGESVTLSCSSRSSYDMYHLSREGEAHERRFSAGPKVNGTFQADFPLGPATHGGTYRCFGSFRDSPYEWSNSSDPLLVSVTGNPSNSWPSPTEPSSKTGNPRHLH
# Sequence of KIR2DS2 (P10321 25-366, further chain): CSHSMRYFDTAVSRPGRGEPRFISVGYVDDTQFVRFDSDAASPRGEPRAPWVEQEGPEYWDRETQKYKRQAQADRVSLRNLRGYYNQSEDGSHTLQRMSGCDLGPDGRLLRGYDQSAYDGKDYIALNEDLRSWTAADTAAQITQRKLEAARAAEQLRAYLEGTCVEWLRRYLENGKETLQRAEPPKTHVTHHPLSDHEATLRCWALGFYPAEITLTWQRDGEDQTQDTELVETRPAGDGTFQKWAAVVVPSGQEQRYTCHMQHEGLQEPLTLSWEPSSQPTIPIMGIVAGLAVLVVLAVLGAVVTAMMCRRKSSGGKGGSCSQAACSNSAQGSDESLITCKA
# Sequence of KIR2DS2 (P61769 21-119 partner): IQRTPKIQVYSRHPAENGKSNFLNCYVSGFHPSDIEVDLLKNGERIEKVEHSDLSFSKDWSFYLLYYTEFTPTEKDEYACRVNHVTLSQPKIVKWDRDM
sequence,measurement,value
NAPLVHATL [peptide derived from Exportin-1 (XPO1)],Mean fluorescence intensity of KIR2DS2 tetramer staining,14811
